Test results published in patent US8758816B2, “Compositions comprising azelastine and methods of use thereof” (priority 2004, dated 2014).
Counter-ions that a name gives are not always drawn.

Tested on: patients with seasonal allergic rhinitis (SAR)
Assay: MP 428 study: individual symptom severity scores (runny nose, itchy nose, sneezing, congestion; 0-3 scale)
Assay type: in vivo, human
Conditions: Intent-to-Treat Population
Protocol: A two-week, randomized, double-blind study, which evaluated the effects of the co-administration of ASTELIN® (azelastine hydrochloride (HCl)) and FLONASE® (fluticasone propionate) compared to either product alone in patients with seasonal allergic rhinitis (SAR) was conducted during the 2006 Texas mountain cedar season. After a 5-day placebo lead-in period, 151 patients with moderate-to-severe allergic rhinitis symptoms were randomized to either: (1) (49 total patients) ASTELIN® (azelastine hydrochloride (HCl)) plus placebo saline nasal spray 2 sprays per nostril, 15 minutes apart, twice daily (AM & PM); (2) (50 total patients) FLONASE® (fluticasone propionate) plus placebo saline nasal spray, 2 sprays per nostril, 15 minutes apart, once daily (AM) and two sessions of placebo saline nasal spray, 2 sprays per nostril, 15 minutes apart (PM); or (3) (52 total patients) the co-administration of ASTELIN® (azelastine hydrochloride (HCl)) 2 sprays per nostril plus FLONASE® (fluticasone propionate) 2 sprays per nostril (AM), 15 minutes apart, and ASTELIN® (azelastine hydrochloride (HCl)) 2 sprays per nostril plus placebo saline nasal spray, 15 minutes apart, (PM) for a 2-week double-blind treatment period.
The primary efficacy variable was the change from baseline in the Total Nasal Symptom Score (TNSS), which comprised sneezing, itchy nose, runny nose, and nasal congestion (individual symptoms scores were assigned a value between 0 and 3, where 0=no symptoms and 3=severe symptoms). This study was not statistically designed to assess the differences between ASTELIN® and FLONASE®.
The results of the clinical trial are summarized and presented in Appendix A hereinbelow and in FIGS. 1-6. […] FIGS. 2-5 show the mean improvement in severity score (0-3 scale) from baseline for the symptoms of runny nose, itchy nose, sneezing and congestion, respectively.

## CN1CCCC(n2nc(Cc3ccc(Cl)cc3)c3ccccc3c2=O)CC1 (racemic) [Azelastine, (±)-1-(2H)-phthalazinone, 4-[(4-chlorophenyl)methyl]-2-(hexahydro-1-methyl-1H-azepin-4-yl)-, mono-hydrochloride]
Day 12
  Percent Change from Baseline in AM and PM Combined Nasal Symptom Score: Congestion, LS Mean: −21.71%
  Percent Change from Baseline in AM and PM Combined Nasal Symptom Score: Congestion, Mean: −22.63%
  Percent Change from Baseline in AM and PM Combined Nasal Symptom Score: Congestion, Median: −16.67%
  Percent Change from Baseline in AM and PM Combined Nasal Symptom Score: Itchy Nose, LS Mean: −29.11%
  Percent Change from Baseline in AM and PM Combined Nasal Symptom Score: Itchy Nose, Mean: −28.74%
  Percent Change from Baseline in AM and PM Combined Nasal Symptom Score: Itchy Nose, Median: −16.67%
  Percent Change from Baseline in AM and PM Combined Nasal Symptom Score: Runny Nose, LS Mean: −22.75%
  Percent Change from Baseline in AM and PM Combined Nasal Symptom Score: Runny Nose, Mean: −23.43%
  Percent Change from Baseline in AM and PM Combined Nasal Symptom Score: Runny Nose, Median: −8.40%
  Percent Change from Baseline in AM and PM Combined Nasal Symptom Score: Sneezing, LS Mean: −34.92%
  Percent Change from Baseline in AM and PM Combined Nasal Symptom Score: Sneezing, Mean: −34.06%
  Percent Change from Baseline in AM and PM Combined Nasal Symptom Score: Sneezing, Median: −33.33%
Day 13
  Change from Baseline in AM and PM Combined Nasal Symptom Score: Congestion, LS Mean: −1.25
  Change from Baseline in AM and PM Combined Nasal Symptom Score: Congestion, Mean: −1.29
  Change from Baseline in AM and PM Combined Nasal Symptom Score: Congestion, Median: −1.00
  Change from Baseline in AM and PM Combined Nasal Symptom Score: Itchy Nose, LS Mean: −1.44
  Change from Baseline in AM and PM Combined Nasal Symptom Score: Itchy Nose, Mean: −1.43
  Change from Baseline in AM and PM Combined Nasal Symptom Score: Itchy Nose, Median: −1.15
  Change from Baseline in AM and PM Combined Nasal Symptom Score: Runny Nose, LS Mean: −1.36
  Change from Baseline in AM and PM Combined Nasal Symptom Score: Runny Nose, Mean: −1.38
  Change from Baseline in AM and PM Combined Nasal Symptom Score: Runny Nose, Median: −1.07
  Change from Baseline in AM and PM Combined Nasal Symptom Score: Sneezing, LS Mean: −1.60
  Change from Baseline in AM and PM Combined Nasal Symptom Score: Sneezing, Mean: −1.60
  Change from Baseline in AM and PM Combined Nasal Symptom Score: Sneezing, Median: −1.75
  Percent Change from Baseline in AM and PM Combined Nasal Symptom Score: Congestion, LS Mean: −22.44%
  Percent Change from Baseline in AM and PM Combined Nasal Symptom Score: Congestion, Mean: −23.01%
  Percent Change from Baseline in AM and PM Combined Nasal Symptom Score: Congestion, Median: −18.64%
  Percent Change from Baseline in AM and PM Combined Nasal Symptom Score: Itchy Nose, LS Mean: −32.25%
  Percent Change from Baseline in AM and PM Combined Nasal Symptom Score: Itchy Nose, Mean: −31.63%
  Percent Change from Baseline in AM and PM Combined Nasal Symptom Score: Itchy Nose, Median: −22.33%
  Percent Change from Baseline in AM and PM Combined Nasal Symptom Score: Runny Nose, LS Mean: −27.36%
  Percent Change from Baseline in AM and PM Combined Nasal Symptom Score: Runny Nose, Mean: −27.57%
  Percent Change from Baseline in AM and PM Combined Nasal Symptom Score: Runny Nose, Median: −24.05%
  Percent Change from Baseline in AM and PM Combined Nasal Symptom Score: Sneezing, LS Mean: −35.90%
  Percent Change from Baseline in AM and PM Combined Nasal Symptom Score: Sneezing, Mean: −35.28%
  Percent Change from Baseline in AM and PM Combined Nasal Symptom Score: Sneezing, Median: −30.43%
Day 14
  Change from Baseline in AM and PM Combined Nasal Symptom Score: Congestion, LS Mean: −1.33
  Change from Baseline in AM and PM Combined Nasal Symptom Score: Congestion, Mean: −1.39
  Change from Baseline in AM and PM Combined Nasal Symptom Score: Congestion, Median: −1.05
  Change from Baseline in AM and PM Combined Nasal Symptom Score: Itchy Nose, LS Mean: −1.39
  Change from Baseline in AM and PM Combined Nasal Symptom Score: Itchy Nose, Mean: −1.39
  Change from Baseline in AM and PM Combined Nasal Symptom Score: Itchy Nose, Median: −1.15
  Change from Baseline in AM and PM Combined Nasal Symptom Score: Runny Nose, LS Mean: −1.32
  Change from Baseline in AM and PM Combined Nasal Symptom Score: Runny Nose, Mean: −1.34
  Change from Baseline in AM and PM Combined Nasal Symptom Score: Runny Nose, Median: −1.43
  Change from Baseline in AM and PM Combined Nasal Symptom Score: Sneezing, LS Mean: −1.51
  Change from Baseline in AM and PM Combined Nasal Symptom Score: Sneezing, Mean: −1.50
  Change from Baseline in AM and PM Combined Nasal Symptom Score: Sneezing, Median: −1.35
  Percent Change from Baseline in AM and PM Combined Nasal Symptom Score: Congestion, LS Mean: −23.87%
  Percent Change from Baseline in AM and PM Combined Nasal Symptom Score: Congestion, Mean: −24.78%
  Percent Change from Baseline in AM and PM Combined Nasal Symptom Score: Congestion, Median: −20.79%
  Percent Change from Baseline in AM and PM Combined Nasal Symptom Score: Itchy Nose, LS Mean: −31.60%
  Percent Change from Baseline in AM and PM Combined Nasal Symptom Score: Itchy Nose, Mean: −31.14%
  Percent Change from Baseline in AM and PM Combined Nasal Symptom Score: Itchy Nose, Median: −25.00%
  Percent Change from Baseline in AM and PM Combined Nasal Symptom Score: Runny Nose, LS Mean: −25.17%
  Percent Change from Baseline in AM and PM Combined Nasal Symptom Score: Runny Nose, Mean: −25.22%
  Percent Change from Baseline in AM and PM Combined Nasal Symptom Score: Runny Nose, Median: −29.41%
  Percent Change from Baseline in AM and PM Combined Nasal Symptom Score: Sneezing, LS Mean: −30.86%
  Percent Change from Baseline in AM and PM Combined Nasal Symptom Score: Sneezing, Mean: −29.95%
  Percent Change from Baseline in AM and PM Combined Nasal Symptom Score: Sneezing, Median: −27.93%
Overall (Day 2 to Day 14)
  Change from Baseline in AM and PM Combined Nasal Symptom Score: Congestion, LS Mean: −1.08
  Change from Baseline in AM and PM Combined Nasal Symptom Score: Congestion, Mean: −1.12
  Change from Baseline in AM and PM Combined Nasal Symptom Score: Congestion, Median: −0.77
  Change from Baseline in AM and PM Combined Nasal Symptom Score: Itchy Nose, LS Mean: −1.14
  Change from Baseline in AM and PM Combined Nasal Symptom Score: Itchy Nose, Mean: −1.16
  Change from Baseline in AM and PM Combined Nasal Symptom Score: Itchy Nose, Median: −0.98
  Change from Baseline in AM and PM Combined Nasal Symptom Score: Runny Nose, LS Mean: −1.06
  Change from Baseline in AM and PM Combined Nasal Symptom Score: Runny Nose, Mean: −1.08
  Change from Baseline in AM and PM Combined Nasal Symptom Score: Runny Nose, Median: −0.67
  Change from Baseline in AM and PM Combined Nasal Symptom Score: Sneezing, LS Mean: −1.48
  Change from Baseline in AM and PM Combined Nasal Symptom Score: Sneezing, Mean: −1.49
  Change from Baseline in AM and PM Combined Nasal Symptom Score: Sneezing, Median: −1.31
  Percent Change from Baseline in AM and PM Combined Nasal Symptom Score: Congestion, LS Mean: −19.23%
  Percent Change from Baseline in AM and PM Combined Nasal Symptom Score: Congestion, Mean: −19.82%
  Percent Change from Baseline in AM and PM Combined Nasal Symptom Score: Congestion, Median: −12.82%
  Percent Change from Baseline in AM and PM Combined Nasal Symptom Score: Itchy Nose, LS Mean: −25.36%
  Percent Change from Baseline in AM and PM Combined Nasal Symptom Score: Itchy Nose, Mean: −25.53%
  Percent Change from Baseline in AM and PM Combined Nasal Symptom Score: Itchy Nose, Median: −19.66%
  Percent Change from Baseline in AM and PM Combined Nasal Symptom Score: Runny Nose, LS Mean: −20.47%
  Percent Change from Baseline in AM and PM Combined Nasal Symptom Score: Runny Nose, Mean: −21.06%
  Percent Change from Baseline in AM and PM Combined Nasal Symptom Score: Runny Nose, Median: −15.44%
  Percent Change from Baseline in AM and PM Combined Nasal Symptom Score: Sneezing, LS Mean: −34.20%
  Percent Change from Baseline in AM and PM Combined Nasal Symptom Score: Sneezing, Mean: −33.98%
  Percent Change from Baseline in AM and PM Combined Nasal Symptom Score: Sneezing, Median: −33.20%
